“Also recorded” adds a separate entry of the source. Like-named read-outs stand apart in the source and are kept apart here.
How the values were obtained:
human sAC [1] = molecular target: T1, human sAC (Homo sapiens, UniProt Q96PN6); assay: cellular cAMP accumulation assay in 4-4 cells (hsACt stably transfected into 293T), IBMX; format: cell-based; settings: for IC50: stable cell line overexpressing human sAC, 500 μM IBMX, read-out: 4-4, Basal approximate IC50 (or the dose range where the IC50 should lie)
T1 construct: made in house
T1 sequence (Q96PN6 1-469 limits assumed): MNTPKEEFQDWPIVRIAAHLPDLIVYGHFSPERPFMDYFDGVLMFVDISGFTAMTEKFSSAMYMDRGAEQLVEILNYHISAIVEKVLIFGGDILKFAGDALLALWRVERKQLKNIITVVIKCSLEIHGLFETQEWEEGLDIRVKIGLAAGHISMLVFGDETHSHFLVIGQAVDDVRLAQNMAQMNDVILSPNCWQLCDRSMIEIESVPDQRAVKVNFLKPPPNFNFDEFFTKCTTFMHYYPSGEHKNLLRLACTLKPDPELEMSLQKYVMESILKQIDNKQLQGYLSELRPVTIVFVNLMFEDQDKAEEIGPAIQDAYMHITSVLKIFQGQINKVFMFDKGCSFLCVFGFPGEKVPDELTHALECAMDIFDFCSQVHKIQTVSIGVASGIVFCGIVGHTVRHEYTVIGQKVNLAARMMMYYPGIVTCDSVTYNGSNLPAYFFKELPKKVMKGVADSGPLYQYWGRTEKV
Protocol: 293T cells or 4-4 […] stably transfected into 293T) were grown in 75 cm2 Tissue Culture Flasks until nearly confluent using DMEM (10% FBS, 1% L-Glutamine, 1% Penicillin/Streptomycin). Cells were released from the flask with 3 ml of trypsin followed by addition of 7 ml of DMEM to neutralize the trypsin. Cells were mixed by pipetting up and down with 10 ml serological pipette. To a 3 ml aliquot of the cell mixture, 6 ml of DMEM (prewarmed to 37° C.) was added followed by thorough mixing by picking up the entire 9 mls using a repeat pipettor, and slowly pipetting out against the wall of container. This was repeated this ten times to ensure the mixture in homogenous. 100 μL of cells were then added to each pre-siliconized 1.7 ml Eppindorf tubes (Costar #3207) followed by a 60 min incubation at 37° C. and 5% CO2. This incubation was performed in 20-tube, round, floating racks (VWR #60986-100), which enable a quick transfer of the samples to a water bath, and the ability to mix several samples simultaneously. Following the incubation, 1 μL of the compound in DMSO was added (or just DMSO for controls). The cells were mixed before and after adding the compound, by a brief (and light) vortexing. The compounds were added while the cells were in the 37° C. water bath, followed by a 10 min incubation at 37° C. and 5% CO2. Following this incubation, 1 μL it of IBMX or 1 μL of IBMX+Forskolin was added with Repeat Pipettor. The 4-4 cells receive the IBMX to a final concentration of 500 μM IBMX. […] Both the IBMX mix (for 4-4 cells), and the IBMX/FSK mix (for 293T cells) were 100×, and were dissolved in DMSO. Cells were mixed and incubated at 37° C. and 5% CO2 for 15 min. The assay was stopped by placing the cells in an ice bath. Cells were pelleted by centrifugation at 2000×G for 7 min at 4° C. The supernatant was aspirated and 250 μL of 0.1 N HCl was added to each cell pellet followed by through vortexing for 1 min. Following a 10 min incubation at room temperature, 30 μL of each sample was added to 70 μL of 0.1 N HCl and the cAMP levels were measured using the protocol for the Direct Cyclic AMP Kit (Assay Designs, Inc. #901-066). This 30 μL plus 70 μL of 0.1 N HCl makes up the sample described in step 5 of the Assay Designs' protocol. The samples should lie in the linear range of the assay.

human sAC [2] = molecular target: T1, human sAC; assay: in vitro adenylyl cyclase assay with purified human sAC protein (cAMP by Correlate-EIA); format: biochemical; settings: for inhibition at 100 µM: 100 μM of compound
Protocol: Purified human sAC protein was used in an in vitro adenylyl cyclase assay. Purification of the protein is described in detail in Litvin et al. 2003. (J. Biol. Chem. 278:15922-15926). This paper also describes the general conditions for a sAC cyclase assay. The specific conditions for the in vitro assay are as follows.
For basal sAC activity, an assay master mixture with sufficient volume for all reactions was prepared containing:
100 U/ml creatine phosphokinase (CPK)
An aliquot of the master mixture was added to the purified human sAC. The assay mixture also included the indicated concentration of KH compound, or an equivalent volume of vehicle (i.e., DMSO) as control. The reaction was started by adding 5 mM ATP (total assay volume=100 μL). The reaction mixture was incubated at 30° C. for 30 minutes and then stopped by adding 100 μl […]. Stimulated assay conditions involve adding 40 mM bicarbonate and 5 mM CaCl2 to the above master mixture.
(§1) Cyclic AMP levels were measured in each sample using the Correlate-EIA Direct Cyclic AMP assay kit from Assay Designs as per manufacturers instructions.

[3] = test system: endogenous transmembrane adenylyl cyclases; assay: cellular cAMP accumulation assay in 293T cells + IBMX + forskolin; format: cell-based, human; settings: for IC50: 293T cells, 500 μM IBMX and 10 μM forskolin, endogenous tmAC activity, read-out: 293T + FSK
Protocol: 293T cells or 4-4 cells (hsACt stably transfected into 293T) were grown in 75 cm2 Tissue Culture Flasks until nearly confluent using DMEM (10% FBS, 1% L-Glutamine, 1% Penicillin/Streptomycin). Cells were released from the flask with 3 ml of trypsin followed by addition of 7 ml of DMEM to neutralize the trypsin. Cells were mixed by pipetting up and down with 10 ml serological pipette. To a 3 ml aliquot of the cell mixture, 6 ml of DMEM (prewarmed to 37° C.) was added followed by thorough mixing by picking up the entire 9 mls using a repeat pipettor, and slowly pipetting out against the wall of container. This was repeated this ten times to ensure the mixture in homogenous. 100 μL of cells were then added to each pre-siliconized 1.7 ml Eppindorf tubes (Costar #3207) followed by a 60 min incubation at 37° C. and 5% CO2. This incubation was performed in 20-tube, round, floating racks (VWR #60986-100), which enable a quick transfer of the samples to a water bath, and the ability to mix several samples simultaneously. Following the incubation, 1 μL of the compound in DMSO was added (or just DMSO for controls). The cells were mixed before and after adding the compound, by a brief (and light) vortexing. The compounds were added while the cells were in the 37° C. water bath, followed by a 10 min incubation at 37° C. and 5% CO2. Following this incubation, 1 μL it of IBMX or 1 μL of IBMX+Forskolin was added with Repeat Pipettor. The 4-4 cells receive the IBMX to a final concentration of 500 μM IBMX. The 293T cells receive IBMX and Forskolin to final concentration of 500 μM IBMX and 10 μM, respectively. Both the IBMX mix (for 4-4 cells), and the IBMX/FSK mix (for 293T cells) were 100×, and were dissolved in DMSO. Cells were mixed and incubated at 37° C. and 5% CO2 for 15 min. The assay was stopped by placing the cells in an ice bath. Cells were pelleted by centrifugation at 2000×G for 7 min at 4° C. The supernatant was aspirated and 250 μL of 0.1 N HCl was added to each cell pellet followed by through vortexing for 1 min. Following a 10 min incubation at room temperature, 30 μL of each sample was added to 70 μL of 0.1 N HCl and the cAMP levels were measured using the protocol for the Direct Cyclic AMP Kit (Assay Designs, Inc. #901-066). This 30 μL plus 70 μL of 0.1 N HCl makes up the sample described in step 5 of the Assay Designs' protocol. The samples should lie in the linear range of the assay.

[4] = test system: P. aeruginosa CyaB (a Class III adenylyl cyclase); assay: Pseudomonas adenylyl cyclase assay with purified His-CyaB; format: biochemical, Pseudomonas aeruginosa; settings: increasing concentrations of compound, FIG. 1 / FIG. 2
Protocol: (§2) FIG. 1. […] The CyaB was heterologously expressed in E. coli as a poly-histidine tagged fusion protein and purified using a nickel column. Adenylyl cyclase activity was determined by measuring cyclic AMP levels using the Correlate-EIA Direct Cyclic AMP assay kit from Assay Designs as per manufacturers instructions.
as §2, with “2.” for “1.”
P. aeruginosa CyaB (a Class III adenylyl cyclase) was heterologously expressed in E. coli as a HIS-tagged, fusion protein. Expression of the fusion protein was induced by Isopropyl β-D-1-thiogalactopyranoside (IPTG) t at 21° C. (empirically found to be best temperature for expression). The His-CyaB fusion protein was purified using a nickel affinity column according to standard protocols in the absence of any reducing agent. Eluted protein was dialyzed into storage buffer consisting of: 50 mM Tris (pH 8.5), 10 mM NaCl, 2 mM MgCl2, and 25% glycerol.
The purified CyaB was assayed for cyclase activity as follows. […]
as §1

[5] = BASAL human sAC in vitro activity, read-out: % Inhibition (100 μM), hsACt-Basal
[6] = stimulated human sAC in vitro activity, read-out: % Inhibition (100 μM), hsACt-Stim.
[7] = BASAL activity of human sAC in vitro (just Mg-ATP, no calcium or bicarbonate), read-out: hsACt-Basal approximate IC50 (or the dose range where the IC50 should lie)
[8] = stimulated activity of human sAC in vitro (calcium and bicarbonate stimulated), read-out: hsACt-Stim. approximate IC50 (or the dose range where the IC50 should lie)

| SMILES | IC50 (human sAC [1]) | inhibition at 100 µM (human sAC [2]; [5]) | inhibition at 100 µM (human sAC [2]; [6]) | IC50 (human sAC [2]; [7]) | IC50 (human sAC [2]; [8]) | IC50 [3] | cellular toxicity remark, 4-4 Basal (human sAC [1]; 4-4 cells) | cellular toxicity remark, 293T + FSK ([3]; 293T cells + FSK) | effect on CyaB adenylyl cyclase activity [4] |
| --- | --- | --- | --- | --- | --- | --- | --- | --- | --- |
| CC(Sc1nc2ccccc2[nH]1)C(=O)N/N=C/c1ccc([N+](=O)[O-])cc1 (centres unmarked) [KH7.101] | 30 µM | 50% | 50% | 10 to 100 µM | 10 to 100 µM | > 120 µM | – | – | – |
| O=C(CSc1nc2ccccc2[nH]1)NCCc1ccccc1 [KH7.102] | 100 µM | 0% | 0% | > 100 µM | > 100 µM | > 500 µM | – | – | – |
| O=C(CSc1nc2ccccc2[nH]1)N/N=C/c1cc(Br)ccc1O [KH7.103] | 60 to 120 µM | 100% | 100% | 10 to 100 µM | 10 to 100 µM | > 120 µM | – | – | – |
| O=C(CSc1nc2ccccc2[nH]1)N/N=C/c1cccc(Br)c1 [KH7.104] | 15 µM | 70% | 85% | 10 to 100 µM | 10 to 100 µM | 60 to 120 µM | – | – | – |
| O=C(CSc1nc2ccccc2[nH]1)N/N=C/c1ccc(Cl)cc1Cl [KH7.105] | 15 µM | 90% | 90% | 10 to 100 µM | 10 to 100 µM | 60 µM | – | – | – |
| COc1ccc(/C(C)=N\NC(=O)CSc2nc3ccccc3[nH]2)cc1 [KH7.106] | – | – | – | – | – | > 500 µM | – | – | – |
| C/C(=N\NC(=O)CSc1nc2ccccc2[nH]1)c1ccc(Br)cc1 [KH7.107] | 60 to 120 µM | 95% | 95% | 10 to 100 µM | 10 to 100 µM | > 120 µM | – | – | – |
| C/C(=N\NC(=O)CSc1nc2ccccc2[nH]1)c1ccccc1 [KH7.108] | 30 to 60 µM | 0% | 0% | > 100 µM | > 100 µM | 60 to 120 µM | may be cellular toxicity | may be cellular toxicity | – |
| C/C(=N\NC(=O)CSc1nc2ccccc2[nH]1)c1ccco1 [KH7.109] | ~120 µM | 0% | 0% | > 100 µM | > 100 µM | > 120 µM | – | – | – |
| C/C(=N\NC(=O)CSc1nc2ccccc2[nH]1)c1ccc(Cl)cc1 [KH7.110] | 30 to 60 µM | 90% | 90% | 10 to 100 µM | 10 to 100 µM | > 120 µM | – | – | – |
| CCCOc1ccc(/C=N/NC(=O)CSc2nc3ccccc3[nH]2)cc1 [KH7.111] | 3 to 30 µM | 70% | 70% | 10 to 100 µM | 10 to 100 µM | 120 µM | – | – | – |
| COc1cc(/C(C)=N\NC(=O)CSc2nc3ccccc3[nH]2)ccc1O [KH7.114] | 56 to 167 µM | 0% | 0% | > 100 µM | > 100 µM | > 500 µM | – | – | – |
| C/C(=N/NC(=O)CSc1nc2ccccc2[nH]1)c1ccncc1 [KH7.117] | 167 to 500 µM | 0% | 0% | > 100 µM | > 100 µM | > 500 µM | – | – | – |
| COc1ccc(C2=NN(C(=O)CSc3nc4ccccc4[nH]3)C(c3ccc(F)cc3)C2)cc1 (centres unmarked) [KH7.120] | – | 90% | 90% | 10 to 100 µM | 10 to 100 µM | – | – | – | activator; also recorded: increase in the activity |

— patent publication US9017681B2, “Adenylyl cyclases as novel targets for antibactrial interventions” (Cornell Research Foundation, Inc., priority 2007, dated 2015)
